Measurements: patent publication EP2236511A2, “LIGANDS OF ALPHA-ADRENOCEPTORS AND OF DOPAMINE, HISTAMINE, IMIDAZOLINE AND SEROTONIN RECEPTORS AND THE USE THEREOF” (priority 2007, dated 2009)
Where a name gives a salt, the structure may show the parent alone. Read-outs that look alike come from different tables or passages of the source.

Key:
[1] = target: T1, recombinant human 5-HT6 receptor (Homo sapiens, UniProt P50406); experiment: Radioligand binding to serotonin receptor 5-HT6 ([3H] Lysergic acid diethylamide, HeLa membranes); conditions: for 5-HT6 % inhibition: 10 µM ligand
T1 construct: expressed in transfected cells; host or cells: HeLa
T1 sequence (P50406 whole entry): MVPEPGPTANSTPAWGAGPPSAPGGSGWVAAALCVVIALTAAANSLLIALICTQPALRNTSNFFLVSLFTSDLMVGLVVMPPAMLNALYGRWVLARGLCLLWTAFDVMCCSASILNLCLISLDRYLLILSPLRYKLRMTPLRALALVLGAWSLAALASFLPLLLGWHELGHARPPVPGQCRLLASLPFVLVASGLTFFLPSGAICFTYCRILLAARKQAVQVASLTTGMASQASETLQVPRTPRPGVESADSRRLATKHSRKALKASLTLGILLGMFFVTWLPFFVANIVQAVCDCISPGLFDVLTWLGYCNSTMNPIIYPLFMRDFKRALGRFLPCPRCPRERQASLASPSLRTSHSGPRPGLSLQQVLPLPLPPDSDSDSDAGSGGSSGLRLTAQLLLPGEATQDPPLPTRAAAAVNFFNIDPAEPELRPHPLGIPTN
From the text: Mol Pharmacol. 43:320-327, 1993]. […] Methiothepin is used as positive control.

recombinant human 5-HT1A = target: T2, recombinant human 5-HT1A (Homo sapiens, UniProt P08908); experiment: Radioligand binding to serotonin receptor 5-HT1A ([3H] 8-OH-DPAT, CHO membranes); conditions: for 5-HT1A % inhibition: 10 µM ligand; for inhibition at 10 µM: read-out: 5-HT1A % inhibition
T2 construct: expressed in transfected cells; host or cells: CHO
T2 sequence (P08908 1-422): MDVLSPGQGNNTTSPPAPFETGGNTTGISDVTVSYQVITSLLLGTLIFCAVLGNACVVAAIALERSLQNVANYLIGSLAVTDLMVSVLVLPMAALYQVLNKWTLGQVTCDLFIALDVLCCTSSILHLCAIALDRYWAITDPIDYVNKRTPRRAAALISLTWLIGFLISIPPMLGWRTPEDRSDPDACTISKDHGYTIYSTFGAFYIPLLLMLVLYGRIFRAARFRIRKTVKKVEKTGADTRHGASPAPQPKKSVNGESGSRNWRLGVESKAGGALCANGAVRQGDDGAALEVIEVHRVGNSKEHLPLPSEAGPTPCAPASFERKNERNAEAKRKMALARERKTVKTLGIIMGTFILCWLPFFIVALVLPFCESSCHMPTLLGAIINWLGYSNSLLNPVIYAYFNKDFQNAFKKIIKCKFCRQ
From the text: J Pharmacol Exp Ther. 306(1): 301-309, 2003]. […] Metergoline is used as positive control.

human 5-HT7 receptor = target: T3, human 5-HT7 receptor (Homo sapiens, UniProt P34969); experiment: Radioligand binding to serotonin receptor 5-HT7 ([3H] Lysergic acid diethylamide, CHO membranes); conditions: for 5-HT7 % inhibition: 10 µM ligand; for inhibition at 10 µM: read-out: 5-HT7 % inhibition
T3 construct: expressed in transfected cells; host or cells: CHO
T3 sequence (P34969 whole entry): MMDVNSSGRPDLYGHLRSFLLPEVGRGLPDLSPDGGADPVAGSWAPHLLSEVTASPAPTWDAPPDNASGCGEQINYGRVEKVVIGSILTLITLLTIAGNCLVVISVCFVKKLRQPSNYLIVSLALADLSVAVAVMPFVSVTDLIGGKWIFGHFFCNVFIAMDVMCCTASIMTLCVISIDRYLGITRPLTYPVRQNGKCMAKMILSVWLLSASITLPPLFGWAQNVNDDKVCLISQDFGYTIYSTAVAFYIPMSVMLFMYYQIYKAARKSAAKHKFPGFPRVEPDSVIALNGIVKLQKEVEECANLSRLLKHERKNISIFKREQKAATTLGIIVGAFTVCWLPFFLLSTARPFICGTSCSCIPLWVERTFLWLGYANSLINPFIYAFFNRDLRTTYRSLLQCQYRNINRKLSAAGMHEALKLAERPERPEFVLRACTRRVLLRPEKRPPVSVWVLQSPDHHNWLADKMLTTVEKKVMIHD
From the text: For this purpose sDNA of human 5-HT7 receptor is expressed in CHO cells as it was described in [Shen Y, Monsma FJ Jr, Metcalf MA, Jose PA, Hamblin MW, and Sibley DR. […] J. Biol. Chem. 1993, 268, 18200 - 18204]. […] J. Pharmacol. Exp. Ther. 1994, 268:1403-1410]. […] Methiothepin is used as positive control.

[2] = target: T4, serotonin receptor 5-HT1B (Rattus norvegicus, UniProt P28564); experiment: Radioligand binding to serotonin receptor 5-HT1B ([125I] cyanopindolol, rat brain cortex membranes); conditions: for 5-HT1B % inhibition: 10 µM ligand; for inhibition at 10 µM: read-out: 5-HT1B % inhibition
T4 construct: membrane species are prepared from rat brains (Wistar) by homogenization of species of rat brain-cortices; from tissue; host or cells: rat (Wistar) brain cortex
T4 sequence (P28564 whole entry): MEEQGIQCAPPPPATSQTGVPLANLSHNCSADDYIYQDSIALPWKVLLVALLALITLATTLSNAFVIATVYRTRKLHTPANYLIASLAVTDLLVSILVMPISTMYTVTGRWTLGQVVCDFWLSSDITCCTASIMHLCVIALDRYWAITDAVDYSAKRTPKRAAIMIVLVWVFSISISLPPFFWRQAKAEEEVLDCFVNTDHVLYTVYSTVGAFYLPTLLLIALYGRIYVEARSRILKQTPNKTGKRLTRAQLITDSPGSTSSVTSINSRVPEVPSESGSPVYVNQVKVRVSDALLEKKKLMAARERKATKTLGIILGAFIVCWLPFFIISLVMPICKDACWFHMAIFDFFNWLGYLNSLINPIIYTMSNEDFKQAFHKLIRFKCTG
From the text: Serotonin is used as positive control.

[3] = target: T5, recombinant human 5-HT2A receptor (Homo sapiens, UniProt P28223); experiment: Radioligand binding to serotonin receptor 5-HT2A ([3H] Ketanserin, CHO-K1 membranes); conditions: 10 µM ligand
T5 construct: expressed in transfected cells; host or cells: CHO-K1
T5 sequence (P28223 whole entry): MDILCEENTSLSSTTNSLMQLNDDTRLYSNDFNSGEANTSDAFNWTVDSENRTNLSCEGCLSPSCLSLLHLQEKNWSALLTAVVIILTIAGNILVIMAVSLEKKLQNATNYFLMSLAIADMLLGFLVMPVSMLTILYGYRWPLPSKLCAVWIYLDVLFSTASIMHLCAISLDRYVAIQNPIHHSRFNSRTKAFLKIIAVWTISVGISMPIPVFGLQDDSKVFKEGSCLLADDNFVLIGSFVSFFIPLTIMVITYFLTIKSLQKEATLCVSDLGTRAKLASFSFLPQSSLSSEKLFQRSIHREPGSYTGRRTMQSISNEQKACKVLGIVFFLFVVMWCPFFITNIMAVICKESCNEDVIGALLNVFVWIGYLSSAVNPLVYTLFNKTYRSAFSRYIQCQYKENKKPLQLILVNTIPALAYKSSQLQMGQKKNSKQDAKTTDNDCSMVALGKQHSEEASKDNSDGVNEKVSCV
From the text: 9-C. […] J Neurochem. […] Ketanserin is used as positive control.

[4] = target: T6, recombinant human 5-HT2B receptor (Homo sapiens, UniProt P41595); experiment: Radioligand binding to serotonin receptor 5-HT2B ([3H] Lysergic acid diethylamide, CHO-K1 membranes)
T6 construct: expressed in transfected cells; host or cells: CHO-K1
T6 sequence (P41595 whole entry): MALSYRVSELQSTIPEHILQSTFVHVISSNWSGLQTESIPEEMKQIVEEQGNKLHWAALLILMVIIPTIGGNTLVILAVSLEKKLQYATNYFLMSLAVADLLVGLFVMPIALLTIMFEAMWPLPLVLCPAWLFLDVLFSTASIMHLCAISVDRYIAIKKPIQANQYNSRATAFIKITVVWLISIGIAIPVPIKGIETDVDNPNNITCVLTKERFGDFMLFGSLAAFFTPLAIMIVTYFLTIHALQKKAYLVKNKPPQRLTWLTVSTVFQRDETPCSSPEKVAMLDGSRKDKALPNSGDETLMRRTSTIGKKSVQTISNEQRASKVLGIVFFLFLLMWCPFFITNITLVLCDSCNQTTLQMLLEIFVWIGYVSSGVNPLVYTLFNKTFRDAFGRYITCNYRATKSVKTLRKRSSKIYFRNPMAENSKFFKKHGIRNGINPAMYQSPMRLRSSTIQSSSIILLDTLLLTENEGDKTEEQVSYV

[5] = target: T7, recombinant human 5-HT2C receptor (Homo sapiens, UniProt P28335); experiment: Radioligand binding to serotonin receptor 5-HT2C ([3H] Mesulergine, CHO-K1 membranes)
T7 construct: expressed in transfected cells; host or cells: CHO-K1
T7 sequence (P28335 33-458): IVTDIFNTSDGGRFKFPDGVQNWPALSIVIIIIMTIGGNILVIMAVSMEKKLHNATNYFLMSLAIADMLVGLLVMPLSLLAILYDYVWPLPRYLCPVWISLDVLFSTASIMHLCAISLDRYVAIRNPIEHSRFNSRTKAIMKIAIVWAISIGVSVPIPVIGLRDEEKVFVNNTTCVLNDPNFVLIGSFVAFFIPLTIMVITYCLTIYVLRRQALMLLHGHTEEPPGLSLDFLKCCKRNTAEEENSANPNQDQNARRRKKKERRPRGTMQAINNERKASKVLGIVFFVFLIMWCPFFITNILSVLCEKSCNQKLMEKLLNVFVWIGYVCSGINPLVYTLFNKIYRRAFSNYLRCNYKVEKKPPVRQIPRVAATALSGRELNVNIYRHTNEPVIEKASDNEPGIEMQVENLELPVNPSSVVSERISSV
From the text: J Neurochem. 69: 1449 - 1458, 1997]. […] SB242084 is used as positive control.

[6] = read-out: 5-HT2B % inhibition, 10 µM ligand

| Structure (SMILES) | inhibition at 10 µM (recombinant human 5-HT1A) [%] | inhibition at 10 µM (human 5-HT7 receptor) [%] | inhibition at 10 µM [3] [%] | inhibition at 10 µM ([1]; read-out: 5-HT6 % inhibition) [%] | inhibition at 10 µM [2] [%] | inhibition at 10 µM ([5]; read-out: 5-HT2C % inhibition) [%] | inhibition at 10 µM ([4]; read-out: 5-HT2B % inhibition) [%] | other results |
| --- | --- | --- | --- | --- | --- | --- | --- | --- |
| CN1CCc2c(c3cc(F)ccc3n2C#Cc2ccccc2)C1 [1.1(2)] | – | – | – | – | – | – | – | 5-HT6 % inhibition [1]: 95%; 5-HT1A % inhibition (recombinant human 5-HT1A): 30%; 5-HT7 % inhibition (human 5-HT7 receptor): 59%; 5-HT1B % inhibition [2]: 6%; 5-HT2A % inhibition [3]: 99% |
| Cc1ccc2c(c1)c1c(n2CC(O)c2ccccc2)CCN(C)C1 (stereo not shown) [1.1.2(1-10), 2,8-dimethyl-5-[(2-phenyl-2-hydroxy)ethyl]-1,2,3,4-tetrahydro-1H-pyrido[4,3-b]indole] | – | – | – | – | – | – | – | 5-HT6 % inhibition [1]: 102%; 5-HT1A % inhibition (recombinant human 5-HT1A): 24%; 5-HT7 % inhibition (human 5-HT7 receptor): 96%; 5-HT1B % inhibition [2]: 41%; 5-HT2A % inhibition [3]: 97% |
| Cc1ccc2c(c1)c1c(n2CCc2ccccc2)CCCN(C)C1 [1.2.2(1-2)·HCl] | 20 | 97 | 89 | – | – | – | – | inhibition at 10 µM [4, 6]: 84% |
| Cc1ccc2c(c1)c1c(n2CCc2ccc(C(F)(F)F)cc2)CCN(C)C1 [1.1.2(1-18)·HCl] | 53 | 103 | 100 | 94 | 45 | 99 | – | inhibition at 10 µM [4, 6]: 87% |
| COc1ccc(CCn2c3c(c4cc(C)ccc42)CN(C)CC3)cc1 [1.1.2(1-14)·HCl] | 57 | 100 | – | 108 | 52 | 97 | 97 | – |
| CN1CCc2c(c3cc(F)ccc3n2CC(O)c2ccccc2)C1 (stereo not shown) [1.1.2(1-9)] | – | – | – | – | – | – | – | 5-HT6 % inhibition [1]: 89%; 5-HT1A % inhibition (recombinant human 5-HT1A): -2%; 5-HT7 % inhibition (human 5-HT7 receptor): 84%; 5-HT1B % inhibition [2]: 5%; 5-HT2A % inhibition [3]: 97% |
| Cc1ccc(CCn2c3c(c4cc(F)ccc42)CN(C)CCC3)cn1 [1.2.2(4-2)·2HCl] | – | – | – | – | 60 | – | – | inhibition at 1 µM ([1]; read-out: 5-HT6 % inhibition): 84%; inhibition at 1 µM ([5]; read-out: 5-HT2C % inhibition): 78% |
| CN1CCc2c(c3cc(F)ccc3n2CCCc2ccccc2)C1 [1.3.3(8)·HCl] | -4 | 83 | 97 | 93 | 12 | 97 | 96 | – |
| Cc1ccc2c(c1)c1c(n2CCc2ccc(F)cc2)CCN(C)C1 [1.1.2(1-16)·HCl] | 37 | 95 | 99 | 103 | 36 | 99 | 91 | – |
| Cc1ccc2c(c1)c1c(n2C#Cc2ccccc2)CCN(C)C1 [1.1(4)] | – | – | – | – | – | – | – | 5-HT6 % inhibition [1]: 97%; 5-HT1A % inhibition (recombinant human 5-HT1A): 38%; 5-HT2B % inhibition ([4]; 10 µM ligand): 86%; 5-HT7 % inhibition (human 5-HT7 receptor): 93%; 5-HT1B % inhibition [2]: 26%; 5-HT2C % inhibition ([5]; 10 µM ligand): 99%; 5-HT2A % inhibition [3]: 99% |
| Cc1ccc2c(c1)c1c(n2CCCc2ccccc2)CCN(C)C1 [1.3.3(2)·HCl] | – | – | 99 | 103 | 31 | 98 | 95 | – |
| CN1CCc2c(c3cc(C(F)(F)F)ccc3n2CCc2ccccc2)C1 [1.1.2(1-7)·HCl, 2-methyl-8-trifluoromethyl-5-phenethyl-1,2,3,4-tetrahydro-1H-pyrido[4,3-b]indole] | – | 94 | 91 | – | 13 | 92 | 89 | – |
| CN1CCc2c(c3cc(F)ccc3n2Cc2ccccc2)C1 [1.9(3)·HCl] | – | 81 | 97 | 89 | 12 | 100 | 95 | – |
| Cc1ccc2c(c1)c1c(n2Cc2ccccc2)CCCN(C)C1 [1.10(4)·HCl] | 19 | 75 | 91 | 69 | 31 | 98 | 70 | – |
